In series [1] the test system is normal human epidermal keratinocytes (NHEKs). The series can be described thus: LDH release cytotoxicity assay in keratinocytes. It is filed as cell-based. The settings on record: minimal concentration giving 50% LDH release by NHEKs. The method, boiled down: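 Normal human epidermal keratinocytes were exposed to LL-34 parent and alanine-substituted peptides. Cytotoxicity was read as LDH release in fresh culture supernatants after treatment, using a commercial kit, and reported as the minimal concentration showing toxicity.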

For series [2], the system named is U1 dsRNA binding on the surface of NHEKs. Put plainly: Surface binding of Alexa 488-labeled U1 dsRNA to NHEKs. It is filed as cell-based, human. The settings on record: Alexa 488 U1 0.05-10 μg/ml + peptide 2.5 μM, 10 min on ice; fluorometer RFU, n = 3. As for the experimental part:
We also assayed the dynamics of binding of U1 dsRNA on the surface of NHEKs in the presence of LL-34 mutant peptides. NHEKs were exposed to fluorescent Alexa 488–labeled U1 at increasing concentrations (0.05–10 μg/ml) and LL-34 parent peptide, LL-34 I24A, LL-34 L31A, LL-34 K25A, and LL-34 proline at isoleucine position 20 (I20P) for 10 min on ice to allow for surface binding of U1 to cells in the presence of peptides (Fig. 5A).
Figure 5 Biophysical properties of binding of U1 dsRNA to LL-34 peptides and SRB1 protein.A, NHEKs were treated with Alexa 488–labeled U1 dsRNA or a combination of Alexa 488–labeled U1 dsRNA (0.05–10 μg/ml) and LL-34 peptides LL-34 parent, LL-34 I24A, LL-34 K25A, LL-34 L31A, and LL-34 I20P at 2.5 μM as shown. The cells were prechilled on ice for 15 min before the addition of U1 dsRNA and/or LL-34 peptides, and the surface binding of U1 dsRNA was allowed for 10 min. The amount of U1 dsRNA binding to NHEKs was assessed with a fluorometer, and data are represented as relative fluorescence units (RFUs) (n = 3). B, NHEKs were similarly treated with Alexa-labeled U1 dsRNA (1.5 μg/ml) and/or unlabeled U1 dsRNA (15 μg/ml) with the addition of LL-34 parent peptide at 2.5 μM. The experiment was performed on ice for 10 min, and the relative binding of Alexa 488 U1 dsRNA was assessed on a fluorometer and is shown as RFU (n = 3) (∗p < 0.05) one-way ANOVA. C, SAXS spectra of LL-34 peptides LL-34 parent, LL-34 F5A, LL-34 I24A, and LL-34 L31A incubated with U1 dsRNA. The peptide-U1 dsRNA (P/R) ratio is varied at 1 and 2 for all conditions. The U1 dsRNA interhelical spacing (Q) was calculated by the peak position. The domain size (L) was calculated by the full width at half maximum of the first peak. LL-34, 34-amino acid peptide; NHEKs, normal human epidermal keratinocytes; SAXS, small-angle X-ray scattering.

Residues, ends and D or L forms follow the SMILES beside them.

Take `CC[C@H](C)[C@H](NC(=O)[C@H](CCCCN)NC(=O)[C@H](CCC(=O)O)NC(=O)[C@H](CCCCN)NC(=O)[C@H](CO)NC(=O)[C@H](CCCCN)NC(=O)[C@H](CCCNC(=N)N)NC(=O)[C@H](Cc1ccccc1)NC(=O)[C@H](Cc1ccccc1)NC(=O)[C@H](CC(=O)O)NC(=O)CNC(=O)[C@H](CC(C)C)NC(=O)[C@@H](N)CC(C)C)C(=O)NCC(=O)N[C@@H](CCCCN)C(=O)N[C@@H](CCC(=O)O)C(=O)N[C@@H](Cc1ccccc1)C(=O)N[C@@H](CCCCN)C(=O)N[C@@H](CCCNC(=N)N)C(=O)N[C@H](C(=O)N[C@H](C(=O)N[C@@H](CCC(N)=O)C(=O)N[C@@H](CCCNC(=N)N)C(=O)N[C@H](C(=O)N[C@@H](C)C(=O)N[C@@H](CC(=O)O)C(=O)N[C@@H](Cc1ccccc1)C(=O)N[C@@H](CC(C)C)C(=O)N[C@@H](CCCNC(=N)N)C(=O)N[C@@H](CC(N)=O)C(=O)N[C@@H](CC(C)C)C(=O)N[C@H](C(=O)N1CCC[C@H]1C(=O)N[C@@H](CCCNC(=N)N)C(=O)O)C(C)C)[C@@H](C)CC)C(C)C)[C@@H](C)CC` [LL-34—K25A] (H-LLGDFFRKSKEKIGKEFKRIVQRIADFLRNLVPR-OH): the “Minimal cytotoxic concentration in NHEK (LD50)” value in series [1] was determined as 10 µM. Besides, the “Binding of Alexa 488-labeled U1 dsRNA on the NHEK cell surface” value in series [2] is given as “enhanced binding of U1 on the cell surface”.

Values taken from article PMC8214221, “Sequence determinants in the cathelicidin LL-37 that promote inflammation via presentation of RNA to scavenger receptors” (The Journal of Biological Chemistry, 2021).
